Measurements from patent US7348347B2, “Substituted 4,5,6,7-tetrahydrobenzthiazol-2-ylamine compounds” (Gruenenthal GmbH, priority 2004, dated 2008).
Read-outs that look alike come from different tables or passages of the source.

Legend:
[1] = test system: phenylquinone-induced writhing reactions in mice; experiment: Analgesic test using the phenylquinone-induced writhing test on mice; type: in vivo, mouse; details: male NMRI mice, phenylquinone i.p.
Description: I. Analgesic Test Using the Writhing Test on Mice
The analysis of analgesic activity is carried out using the phenylquinone-induced writhing assay in mice, modified as described in the article by I. C. Hendershot and J. Forsaith ((1959) in J. Pharmacol. Exp. Ther. 125, 237-240. The relevant description is incorporated herein by reference and is to be regarded as part of the present disclosure.
For the present purpose, male NMRI mice are used having a weight of from 25 to 30 g. Groups of 10 animals per substance dose receive, 10 minutes after an intravenous dose of test substances, an intraperitoneal administration of 0.3 ml/mouse of a 0.02% strength aqueous solution of phenylquinone (phenylbenzoquinone, obtainable from Sigma, Deisenhofen; solution produced with the addition of 5% of ethanol and storage in a water bath at 45° C.). The animals are placed individually in observation cages. Using a pushbutton counter, the number of pain-induced stretching movements (so-called writhing reactions=straightening of the body accompanied by stretching of the rear extremities) was counted over a period of from 5 to 20 minutes following the administration of phenylquinone. The control is provided by animals receiving only physiological saline. All substances are tested using the standard dosage of 10 mg/kg. […]

NA transporter = biological target: T1, NA transporter (Rattus norvegicus, UniProt Q63380); experiment: Inhibition of noradrenaline uptake in rat brain synaptosomes; type: biochemical; details: for inhibition at 10 µM: read-out: % Inhibition of NA uptake [10 μM]
T1 construct: from tissue; host or cells: rat brain synaptosomes (P2 fraction) from hypothalamus
T1 sequence (Q63380 1-617): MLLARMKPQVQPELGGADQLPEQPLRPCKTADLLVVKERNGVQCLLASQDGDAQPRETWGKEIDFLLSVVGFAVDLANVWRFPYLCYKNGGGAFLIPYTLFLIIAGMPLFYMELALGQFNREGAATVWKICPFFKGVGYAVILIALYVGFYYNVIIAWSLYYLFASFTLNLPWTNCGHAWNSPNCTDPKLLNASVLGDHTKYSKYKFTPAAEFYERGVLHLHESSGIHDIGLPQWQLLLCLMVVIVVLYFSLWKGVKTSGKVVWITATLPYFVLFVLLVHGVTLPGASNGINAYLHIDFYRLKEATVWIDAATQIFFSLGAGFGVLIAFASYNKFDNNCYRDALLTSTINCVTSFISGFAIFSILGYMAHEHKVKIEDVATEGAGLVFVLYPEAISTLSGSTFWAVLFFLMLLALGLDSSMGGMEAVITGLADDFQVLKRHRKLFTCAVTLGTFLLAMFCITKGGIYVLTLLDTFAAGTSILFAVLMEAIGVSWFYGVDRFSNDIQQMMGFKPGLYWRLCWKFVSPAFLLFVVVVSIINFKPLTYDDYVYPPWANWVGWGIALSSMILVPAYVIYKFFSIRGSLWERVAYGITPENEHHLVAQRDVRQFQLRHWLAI
Description: II. […] For in vitro studies, synaptosomes of rat brain areas are freshly isolated, as described in the article “The isolation of nerve endings from brain” by E. G. Gray and […]. Anatomy 96, pages 79-88, 1962. The relevant literature reference is enclosed herein by reference and is to be regarded as part of the disclosure. […] The homogenate is centrifuged at 4° C. for 10 minutes at 1000 g. […] The respective uptake was measured in a 96 well microtiter plate. The volume was 250 μL and the incubation was carried out at room temperature (ca 20-25° C.) under a blanket of oxygen. […] The 96 samples through were then filtered through a Unifilter GF/B® microtiter plate (Packard) and washed with 200 mL of incubated buffer with the aid of a “Brabdel Cell-Harvester MPXRI 96T”. The Unifilter GF/B plate was dried at 55° C. over a period of 1 h. The plate was then sealed with a back seal® (Packard) and there were then added 35 μL of scintillant fluid per well (Ultima Gold, Packard). Following sealing with a top seal® (Packard) and following adjustment of the equilibrium (approximately over a period of 5 h), the radioactivity is determined in a 1450 Microbeta® (Wallac). […] The amount of protein used in the above determination corresponded to the values known from the literature, such as is described in “Protein measurement with the folin phenol reagent”, Lowry et al., J. Biol. Chem., 193, 265-275, 1951. A detailed description of the method is disclosed in the literature, for example, in […], and B. […] The relevant literature references are incorporated herein by reference and are to be regarded as part of the disclosure.

5-HT uptake = biological target: T2, 5-HT uptake (Rattus norvegicus, UniProt P31652); experiment: Inhibition of 5-HT uptake in rat brain synaptosomes; type: biochemical; details: rat synaptosomes (medulla and pons), [3H]-5-HT
T2 construct: from tissue; host or cells: rat brain synaptosomes (P2 fraction) from marrow (medulla) and pons
T2 sequence (P31652 whole entry): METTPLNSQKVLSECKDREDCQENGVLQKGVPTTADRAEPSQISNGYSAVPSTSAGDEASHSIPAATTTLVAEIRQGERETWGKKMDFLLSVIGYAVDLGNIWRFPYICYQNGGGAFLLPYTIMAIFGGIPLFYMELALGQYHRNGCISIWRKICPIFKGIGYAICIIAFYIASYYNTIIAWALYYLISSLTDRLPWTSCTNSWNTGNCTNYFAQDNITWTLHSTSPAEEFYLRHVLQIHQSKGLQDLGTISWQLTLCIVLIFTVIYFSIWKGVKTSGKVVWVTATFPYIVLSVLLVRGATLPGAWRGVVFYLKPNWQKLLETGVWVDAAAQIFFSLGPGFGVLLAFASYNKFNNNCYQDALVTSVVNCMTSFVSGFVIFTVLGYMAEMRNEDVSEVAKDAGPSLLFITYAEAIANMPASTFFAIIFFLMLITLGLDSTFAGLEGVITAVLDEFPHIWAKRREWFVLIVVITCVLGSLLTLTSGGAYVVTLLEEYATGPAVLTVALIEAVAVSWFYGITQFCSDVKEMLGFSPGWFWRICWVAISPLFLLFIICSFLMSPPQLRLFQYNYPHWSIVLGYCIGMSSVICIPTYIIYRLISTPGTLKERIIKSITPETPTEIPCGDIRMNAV

[2] = 10 μM, rat synaptosomes (hypothalamus), [3H]-NA

Compound: O=C(Nc1nc2c(s1)CCCC2C(=O)N1CCN(c2ccccc2)CC1)c1ccco1 (stereo not drawn) [Example 89, Furan-2-carboxylic acid[4-(4-phenylpiperazin-1-carbonyl)-4,5,6,7-tetrahydrobenzthiazol-2-yl]amide]
- % Inhibition of writhing reactions at 10 mg/kg intravenous [1]: 41%
- inhibition at 10 µM (NA transporter): 77%

Compound: O=C(Cc1ccc(F)cc1)Nc1nc2c(s1)CCCC2C(=O)N1CCN(c2ccccc2Cl)CC1 (stereo not drawn) [Example 81, N-{4-[4-(2-Chlorophenyl)piperazin-1-carbonyl]-4,5,6,7-tetrahydrobenzthiazol-2-yl}-2-(4-fluorophenyl)acetamide]
- inhibition at 10 µM (5-HT uptake): 50%
- inhibition at 10 µM (NA transporter; [2]): 80%

Compound: CCOc1ccccc1C(=O)Nc1nc2c(s1)CCCC2C(=O)N1CCN(CCc2ccccc2)CC1 (stereo not drawn) [Example 20, 2-Ethoxy-N-[4-(4-phenethylpiperazin-1-carbonyl)-4,5,6,7-tetrahydrobenzthiazol-2-yl]benzamide]
- inhibition at 10 µM (5-HT uptake): 64%
- inhibition at 10 µM (NA transporter; [2]): 77%

Compound: CCOc1ccc(Br)cc1CN1CCC(NC(=O)C2CCCc3sc(NC(=O)c4ccco4)nc32)C1 (stereo not drawn) [Example 50, 2-[(Furan-2-carbonyl)amino]-4,5,6,7-tetrahydrobenzthiazol-4-carboxylic acid [1-(5-bromo-2-ethoxybenzyl)pyrrolidin-3-yl]amide]
- inhibition at 10 µM (5-HT uptake): 72%
- inhibition at 10 µM (NA transporter; [2]): 93%

Compound: COc1ccc(N2CCN(C(=O)C3CCCc4sc(NC(=O)c5ccccc5)nc43)CC2C)cc1 (stereo not drawn) [Example 7, N-{4-[4-(4-Methoxyphenyl)-3-methylpiperazin-1-carbonyl]-4,5,6,7-tetrahydrobenzthiazol-2-yl]-benzamide]
- inhibition at 10 µM (5-HT uptake): 51%
- inhibition at 10 µM (NA transporter; [2]): 48%

Compound: CC=CC=CC(=O)Nc1nc2c(s1)CCCC2C(=O)NCC1CCN(Cc2c(Cl)cccc2Cl)C1 (stereo not drawn) [Example 49, 2-Hexa-2,4-dienoylamino-4,5,6,7-tetrahydrobenzthiazol-4-carboxylic acid[1-(2,6-dichlorobenzyl)pyrrolidin-3-yl]methylamide]
- % Inhibition of 5-HT uptake [10 μM] (5-HT uptake): 51%
- % Inhibition of NA uptake [10 μM] (NA transporter; [2]): 44%
